Measured values published in PubChem BioAssay AID248 (DTP/NCI, 2004).
“And” between values parts separate entries of the source, which are not always exact repeats. Equal values may be shown once. Toxic doses and inconclusive results are not listed. Rule as the data show it: active = T/C of 150% or more; inactive = T/C below 125%.

System: L1210 leukemia ip in BDF1 mice, survival T/C
Experiment: NCI In Vivo Anticancer Drug Screen. Data for tumor model L1210 Leukemia (intraperitoneal) in B6D2F1 (BDF1) mice
Conditions: endpoint: mean survival time, higher = longer survival
Summary of the method: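 Antitumor effect is assessed in tumor-bearing animals. Survival in the compound arm is compared with a vehicle-dosed control arm and expressed as their quotient.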

[1] = dose: 100.0 mg/kg/injection, schedule: Q04DX002 (ip), vehicle: saline with Tween-80
[2] = dose: 100.0 mg/kg/injection, schedule: Q01DX001 (ip), vehicle: saline
[3] = dose: 200.0 mg/kg/injection, schedule: Q01DX001 (ip), vehicle: saline
[4] = dose: 400.0 mg/kg/injection, schedule: Q01DX001 (ip), vehicle: saline
[5] = dose: 100.0 mg/kg/injection, schedule: Q04DX003 (ip), vehicle: Klucel (hydroxypropylcellulose) (HPC)
[6] = dose: 200.0 mg/kg/injection, schedule: Q04DX003 (ip), vehicle: Klucel (hydroxypropylcellulose) (HPC)
[7] = dose: 400.0 mg/kg/injection, schedule: Q04DX003 (ip), vehicle: Klucel (hydroxypropylcellulose) (HPC)
[8] = dose: 50.0 mg/kg/injection, schedule: Q01DX009 (ip), vehicle: Klucel (hydroxypropylcellulose) (HPC)
[9] = dose: 100.0 mg/kg/injection, schedule: Q01DX009 (ip), vehicle: saline
[10] = dose: 100.0 mg/kg/injection, schedule: Q01DX009 (ip), vehicle: Klucel (hydroxypropylcellulose) (HPC)
[11] = dose: 200.0 mg/kg/injection, schedule: Q01DX009 (ip), vehicle: Klucel (hydroxypropylcellulose) (HPC)

Measured: T/C

O=C(Nc1ccc(Cc2ccc(NC(=O)Nc3cccc(C4=NCCN4)c3)cc2)cc1)Nc1cccc(C2=NCCN2)c1
inactive: dose: 111.0 mg/kg/injection, schedule: Q01DX Z (ip), vehicle: carboxymethylcellulose (CMC) 101 % of control | dose: 120.0 mg/kg/injection, schedule: Q01DX Z (ip), vehicle: carboxymethylcellulose (CMC) 98 % of control | dose: 166.0 mg/kg/injection, schedule: Q01DX Z (ip), vehicle: carboxymethylcellulose (CMC) 101 % of control | dose: 180.0 mg/kg/injection, schedule: Q01DX Z (ip), vehicle: carboxymethylcellulose (CMC) 98 % of control | dose: 250.0 mg/kg/injection, schedule: Q01DX Z (ip), vehicle: carboxymethylcellulose (CMC) 107 % of control | dose: 270.0 mg/kg/injection, schedule: Q01DX Z (ip), vehicle: carboxymethylcellulose (CMC) 101 % of control | dose: 375.0 mg/kg/injection, schedule: Q01DX Z (ip), vehicle: carboxymethylcellulose (CMC) 107 % of control | dose: 405.0 mg/kg/injection, schedule: Q01DX Z (ip), vehicle: carboxymethylcellulose (CMC) 100 % of control

CN(C)C(C(=O)O)c1ccccc1 (centres undefined)
inactive: [1] 101 % of control | dose: 200.0 mg/kg/injection, schedule: Q04DX002 (ip), vehicle: saline with Tween-80 97 % of control | dose: 400.0 mg/kg/injection, schedule: Q04DX002 (ip), vehicle: saline with Tween-80 97 % of control

O=C1C2CC=C(c3ccccc3)C1CCC2 (centres undefined)
inactive: dose: 75.0 mg/kg/injection, schedule: Q01DX001 (ip), vehicle: other 103 % of control | dose: 150.0 mg/kg/injection, schedule: Q01DX001 (ip), vehicle: other 97 % of control | dose: 300.0 mg/kg/injection, schedule: Q01DX001 (ip), vehicle: other 102 % of control

CCCCCCNC(=O)Nc1ccc(Cl)c(Cl)c1
inactive: [2] 98 % of control | [3] 101 % of control | [4] 95 % of control

CCCCCCCCCCCCSC(=O)Nc1cc([N+](=O)[O-])ccc1C
inactive: [5] 92 % of control | [6] 88 % of control | [7] 88 % of control

OC1CCC2CCC(O)CC2C1 (centres undefined)
inactive: dose: 100.0 mg/kg/injection, schedule: Q04DX003 (ip), vehicle: saline with Tween-80 105 % of control | dose: 200.0 mg/kg/injection, schedule: Q04DX003 (ip), vehicle: saline with Tween-80 105 % of control | dose: 400.0 mg/kg/injection, schedule: Q04DX003 (ip), vehicle: saline with Tween-80 92 % of control

CCOC(=O)C[P+](c1ccc(C)cc1)(c1ccc(C)cc1)c1ccc(C)cc1
inactive: dose: 15.0 mg/kg/injection, schedule: Q01DX001 (ip), vehicle: carboxymethylcellulose (CMC) 86 % of control

CN(N)C(=O)Nc1ccccc1Cl
inactive: dose: 75.0 mg/kg/injection, schedule: Q01DX001 (ip), vehicle: carboxymethylcellulose (CMC) 100 % of control | dose: 150.0 mg/kg/injection, schedule: Q01DX001 (ip), vehicle: carboxymethylcellulose (CMC) 107 % of control

O=C(CCCN1CCC(n2c(=O)[nH]c3ccccc32)CC1)c1ccc(F)cc1
inactive: dose: 6.25 mg/kg/injection, schedule: Q01DX009 (ip), vehicle: Klucel (hydroxypropylcellulose) (HPC) 92 % of control | dose: 12.5 mg/kg/injection, schedule: Q01DX009 (ip), vehicle: Klucel (hydroxypropylcellulose) (HPC) 113 % of control | dose: 12.5 mg/kg/injection, schedule: Q01DX009 (ip), vehicle: saline 102 % of control | dose: 25.0 mg/kg/injection, schedule: Q01DX009 (ip), vehicle: Klucel (hydroxypropylcellulose) (HPC) 120 % of control | dose: 25.0 mg/kg/injection, schedule: Q01DX009 (ip), vehicle: saline 110 % of control | dose: 25.0 mg/kg/injection, schedule: Q04DX003 (ip), vehicle: Klucel (hydroxypropylcellulose) (HPC) 98 % of control and 90 % of control | [8] 96 % of control | dose: 50.0 mg/kg/injection, schedule: Q01DX009 (ip), vehicle: saline 93 % of control | dose: 50.0 mg/kg/injection, schedule: Q04DX003 (ip), vehicle: Klucel (hydroxypropylcellulose) (HPC) 96 % of control | [9] 93 % of control | [5] 91 % of control and 111 % of control | [6] 110 % of control | [7] 97 % of control

CCCCCCCCCCCCCCCCCC(=O)NCCS
inactive: dose: 25.0 mg/kg/injection, schedule: Q04DX002 (ip), vehicle: saline with Tween-80 101 % of control | dose: 50.0 mg/kg/injection, schedule: Q04DX002 (ip), vehicle: saline with Tween-80 89 % of control | [1] 104 % of control

CC(C)=NNC(=O)CC#N
inactive: dose: 100.0 mg/kg/injection, schedule: Q01DX001 (ip), vehicle: Klucel (hydroxypropylcellulose) (HPC) 86 % of control | dose: 200.0 mg/kg/injection, schedule: Q01DX001 (ip), vehicle: Klucel (hydroxypropylcellulose) (HPC) 94 % of control

O=[N+]([O-])/C(=C/C=C/c1ccccc1)c1ccccc1
inactive: [8] 96 % of control | [10] 89 % of control | [11] 86 % of control

Cc1ccc(Cl)cc1NC(=O)c1ccccc1Cl
inactive: [10] 100 % of control | [9] 100 % of control | dose: 100.0 mg/kg/injection, schedule: Q04DX003 (ip), vehicle: saline 95 % of control | [11] 94 % of control | dose: 200.0 mg/kg/injection, schedule: Q01DX009 (ip), vehicle: saline 105 % of control | dose: 200.0 mg/kg/injection, schedule: Q04DX003 (ip), vehicle: saline 122 % of control | dose: 400.0 mg/kg/injection, schedule: Q01DX009 (ip), vehicle: Klucel (hydroxypropylcellulose) (HPC) 87 % of control | dose: 400.0 mg/kg/injection, schedule: Q01DX009 (ip), vehicle: saline 100 % of control | dose: 400.0 mg/kg/injection, schedule: Q04DX003 (ip), vehicle: saline 111 % of control

Cc1c(Cl)cccc1NC(=S)Nc1ccccc1
inactive: dose: 100.0 mg/kg/injection, schedule: Q04DX002 (ip), vehicle: Klucel (hydroxypropylcellulose) (HPC) 100 % of control | dose: 200.0 mg/kg/injection, schedule: Q04DX002 (ip), vehicle: Klucel (hydroxypropylcellulose) (HPC) 95 % of control | dose: 400.0 mg/kg/injection, schedule: Q04DX002 (ip), vehicle: Klucel (hydroxypropylcellulose) (HPC) 95 % of control

N#CCCN1CCCC1=O
inactive: [2] 103 % of control | [3] 100 % of control | [4] 106 % of control

CC(=O)OC1CCC(=O)C2C(C(=O)O)CCCC12 (centres undefined)
inactive: [2] 97 % of control | [3] 103 % of control | [4] 91 % of control

Brc1ccc(N=Cc2ccc3c(c2)OCO3)cc1
inactive: dose: 100.0 mg/kg/injection, schedule: Q04DX003 (ip), vehicle: gum acacia 96 % of control | dose: 200.0 mg/kg/injection, schedule: Q04DX003 (ip), vehicle: gum acacia 95 % of control | dose: 400.0 mg/kg/injection, schedule: Q04DX003 (ip), vehicle: gum acacia 90 % of control

CC(=O)Nc1ccc(C(=O)NNC2=C(NNC(=O)c3ccc(NC(C)=O)cc3)C(=O)c3ccccc3C2=O)cc1
inactive: dose: 75.0 mg/kg/injection, schedule: Q04DX003 (ip), vehicle: saline 100 % of control | dose: 150.0 mg/kg/injection, schedule: Q04DX003 (ip), vehicle: saline 91 % of control | dose: 300.0 mg/kg/injection, schedule: Q04DX003 (ip), vehicle: saline 91 % of control

O=C1C(N2CCCC2)=C(N2CC2)C(=O)C(N2CCCC2)=C1N1CC1
inactive: dose: 0.25 mg/kg/injection, schedule: Q01DX009 (ip), vehicle: saline 94 % of control and 119 % of control | dose: 0.39 mg/kg/injection, schedule: Q04DX003 (ip), vehicle: saline 108 % of control | dose: 0.5 mg/kg/injection, schedule: Q01DX009 (ip), vehicle: saline 101 % of control and 103 % of control | dose: 0.78 mg/kg/injection, schedule: Q04DX003 (ip), vehicle: saline 96 % of control | dose: 1.0 mg/kg/injection, schedule: Q01DX009 (ip), vehicle: saline 106 % of control and 118 % of control | dose: 1.56 mg/kg/injection, schedule: Q04DX003 (ip), vehicle: saline 115 % of control | dose: 2.0 mg/kg/injection, schedule: Q01DX001 (ip), vehicle: saline 108 % of control | dose: 2.0 mg/kg/injection, schedule: Q01DX009 (ip), vehicle: saline 121 % of control and 124 % of control | dose: 4.0 mg/kg/injection, schedule: Q01DX001 (ip), vehicle: saline 97 % of control | dose: 8.0 mg/kg/injection, schedule: Q01DX001 (ip), vehicle: saline 87 % of control | dose: 12.5 mg/kg/injection, schedule: Q04DX003 (ip), vehicle: saline 92 % of control

Nn1nnc(-c2ccccc2)c1-c1ccccc1
inactive: dose: 100.0 mg/kg/injection, schedule: Q01DX001 (ip), vehicle: carboxymethylcellulose (CMC) 100 % of control | dose: 200.0 mg/kg/injection, schedule: Q01DX001 (ip), vehicle: carboxymethylcellulose (CMC) 100 % of control
